# Earlier results, collected in the Kinase Knowledgebase extract (Sharma et al. 2016).
# pIC50: −log10 of the molar value.
# Assays:
# [1] = target: CDK2 (human) (UniProt P24941); assay: Enzyme Assay
# [2] = target: EGFR (UniProt P00533); assay: EGFr Inhibition
# Chain of EGFR (P00533 whole entry, looked up): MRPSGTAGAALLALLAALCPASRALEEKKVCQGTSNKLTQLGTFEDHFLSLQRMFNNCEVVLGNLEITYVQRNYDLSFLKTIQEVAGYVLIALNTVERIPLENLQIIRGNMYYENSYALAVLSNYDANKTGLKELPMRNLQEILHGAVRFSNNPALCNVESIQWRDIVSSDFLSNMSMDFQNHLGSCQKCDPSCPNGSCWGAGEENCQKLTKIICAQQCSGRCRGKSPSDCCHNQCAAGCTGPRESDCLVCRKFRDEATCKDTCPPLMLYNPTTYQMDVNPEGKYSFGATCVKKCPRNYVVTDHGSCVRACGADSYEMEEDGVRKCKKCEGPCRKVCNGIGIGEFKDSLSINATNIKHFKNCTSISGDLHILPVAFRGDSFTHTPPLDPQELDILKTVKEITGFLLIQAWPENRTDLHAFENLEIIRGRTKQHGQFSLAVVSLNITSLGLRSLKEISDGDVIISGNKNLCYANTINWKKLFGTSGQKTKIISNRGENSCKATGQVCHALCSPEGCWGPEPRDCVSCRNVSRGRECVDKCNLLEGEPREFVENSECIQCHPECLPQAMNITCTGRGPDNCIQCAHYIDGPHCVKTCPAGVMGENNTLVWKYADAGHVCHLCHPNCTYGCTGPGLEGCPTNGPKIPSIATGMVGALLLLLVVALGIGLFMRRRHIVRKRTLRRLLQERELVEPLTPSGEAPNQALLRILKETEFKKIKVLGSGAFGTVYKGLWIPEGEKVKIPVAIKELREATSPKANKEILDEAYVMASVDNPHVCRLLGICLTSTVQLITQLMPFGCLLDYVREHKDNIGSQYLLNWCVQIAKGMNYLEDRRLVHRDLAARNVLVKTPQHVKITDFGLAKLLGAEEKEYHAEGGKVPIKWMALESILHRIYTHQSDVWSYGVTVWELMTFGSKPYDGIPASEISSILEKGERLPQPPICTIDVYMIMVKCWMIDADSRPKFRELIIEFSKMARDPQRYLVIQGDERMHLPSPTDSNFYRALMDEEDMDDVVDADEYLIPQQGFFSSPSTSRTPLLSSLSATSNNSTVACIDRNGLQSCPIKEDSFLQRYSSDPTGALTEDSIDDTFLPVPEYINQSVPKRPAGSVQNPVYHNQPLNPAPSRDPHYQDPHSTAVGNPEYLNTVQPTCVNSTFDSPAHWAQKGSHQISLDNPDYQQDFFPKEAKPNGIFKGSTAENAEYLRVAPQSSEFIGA
SMILES,pIC50 [1],pIC50 [2]
NS(=O)(=O)c1ccc(NN=C2C(=O)Nc3ccc(C(=O)NCCn4ccnc4)cc32)cc1,7.60,
O=C1Nc2ccccc2C1=CNc1ccc(-c2cnco2)c2c1CS(=O)(=O)C2,8.05,
Cn1c(=O)c(-c2c(Cl)cccc2Cl)cc2cnc(NCc3ccccc3)nc21,,4.12
O=C1Nc2ccc3ncsc3c2C1=CNc1ccc(S(=O)(=O)NCO)cc1,8.33,
CNS(=O)(=O)Cc1ccc(NC=C2C(=O)Nc3ccc4ncsc4c32)cc1,7.58,
Cn1c(=O)c(-c2c(Cl)cccc2Cl)cc2cnc(NC3CCCCC3)nc21,,4.12
CC(C)(C)OC(=O)Nc1ccc(Nc2n[nH]c3ncnc(Nc4cccc(Cl)c4)c23)cc1,,4.82
CC(C)Oc1cccc2c1C(=NNc1ccc(S(N)(=O)=O)cc1)C(=O)N2,8.48,
CCOC(=O)c1ccc(Nc2ncc3cc(-c4c(Cl)cccc4Cl)c(=O)n(C)c3n2)cc1,,4.12
